{
  "source": "patent US6949679B1",
  "about": "“Polyamine transport inhibitors” (Universite Laval, priority 1998, dated 2005)",
  "key": {"polyamine transporter [1]": {"test_system": "polyamine transporter", "experiment": "Inhibition of [3H]putrescine uptake in ZR-75-1 cells", "assay_type": "cell-based, human", "settings": "for Ki: ZR-75-1 cells", "description": "(§1) The rate of putrescine and spermidine transport was determined in ZR-75-1 cells incubated in serum-free RPMI 1640 medium as described (Lessard, M., Zhao, C., Singh, S. M. and Poulin, R. 1995. J. Biol. Chem. 270: 1685-1694), using [^3H]putrescine (30 Ci/mol) and [^3H]spermidine (20 Ci/mol), respectively as substrates for a 20 minute-assay period. Spermine uptake was similarly determined, using 1 μM [^14C]spermine (32 Ci/mol) as substrate. Uptake activity was expressed per amount of DNA as fluorometrically determined using 3,4-diaminobenzoic acid (Simard, J., Dauvois, S., Haagensen, D. E., Lėvesque, C., Mėrand, Y. and Labrie, F. 1990. Endocrinology, 126: 3223-3231). For the determination of spermidine uptake activity in CHO-K1 cells, 80% confluent cell monolayers were rinsed twice with PBS and incubated for 20 minutes at 37° C. in 400 μl of buffer A (20 mM Tris-HCl, pH 7.4; 0.42 mM CaCl2; 0.41 mM MgSO4; 103 mM NaCl; 5.7 mM KCl; 1.1 mM D-glucose) containing 5 μM [^3H]spermidine (20 Ci/mol). Cell cultures were then washed twice with 1 ml PBS containing 5.7 mM sym-norspermidine. Cells were then lysed with 200-μl aliquot of 1 N NaOH and incubated for 30 minutes at 60° C. After neutralization with 200 μl of 1 N HCl, radioactivity was determined from a 250-μl of the cell lysate by scintillation counting. Uptake activity was expressed per amount of total cellular protein as determined by the method of Bradford (Bradford, M. M. 1976. Anal. Biochem. 72: 248-254). Non-specific binding of radioactive substrate was similarly determined in parallel for both cell lines after a 15 second-incubation with 400 μl of ice-cold uptake solution.\n(§2) Kinetic analysis of polyamine transport was performed by determining uptake activity in the presence of a 3 μM [^3H]putrescine or 1 μM [^3H]spermidine plus increasing concentrations of nonradioactive substrate. K[…] Ki and Vmax values were then estimated by Lineweaver-Burke analysis. For competitive inhibitors, Ki values were also estimated by measuring uptake activity in the presence of logarithmically increasing concentrations of antagonist, and using the Cheng-Prusoff equation (Cheng, Y.-C. and Prusoff, W. H. 1973. Biochem. Pharmacol. 22: 3099-3108) by iterative curve fitting for a sigmoidal curve. For mixed competitive/noncompetitive inhibition, two methods were used to calculate kinetic constants. First, the equation [drawing 2] where v, s, and i are the transport velocity, substrate concentration and inhibitor concentration respectively, was used to calculate the inhibition constants for inhibitor/carrier complex formation (Ki) and carrier/inhibitor/substrate complex formation (Ki′) (Dixon, M. and Webb, E. C. 1976. Enzymes, 3rd Ed., Academic Press, San Diego, Calif.). Alternatively, the value of Ki for a mixed competitor/non-competitor was estimated from the intersect of equations v^−1 vs i at two different substrate concentrations (Dixon, M. and Webb, E. C. 1976. Enzymes, 3rd Ed., Academic Press, San Diego, Calif.). Intracellular Accumulation\n(§3) In order to evaluate the effectiveness of dimeric triamines as polyamine transport inhibitors, we synthesized N,N′-bis(3-aminopropyl),N,N′-bis(4-aminobutyl)cystamine or BABAC (structure 1, FIG. 25; FIG. 31), and its thiol form N-(3-aminopropyl),N-(4-aminobutyl)cysteamine or AAC (FIG. 31) according to Scheme 4 described above (FIG. 30), using spermidine as a precursor polyamine. The ability of BABAC and AAC to inhibit the intracellular uptake of radio-labeled putrescine and spermidine in the ZR-75-1 human breast cancer cell line was then determined according to standard published procedures (Lessard, et al. and Poulin, et al.) Briefly, ZR-75-1 cells were grown for four days in twenty-four well plates in RPMI 1640 medium supplemented with 10% fetal bovine serum."}, "polyamine transporter [2]": {"test_system": "polyamine transporter", "experiment": "Inhibition of [14C]spermine uptake in ZR-75-1 cells", "assay_type": "cell-based, human", "settings": "for Ki: this work, read-out: Km or Ki, spermine transport", "description": "as §1, with “Spermine uptake was similarly determined, using 1 μM [^14C]spermine (32 Ci/mol) as substrate.” left out\nas §2, §3"}, "[3]": {"experiment": "Stability in buffered aqueous solution", "assay_type": "physicochemical", "settings": "buffered at pH=7.0"}, "ZR-75-1 cells [4]": {"test_system": "ZR-75-1 cells", "experiment": "Effect on ZR-75-1 cell proliferation (11 days, DNA content)", "assay_type": "cell-based, human", "settings": "50 μM", "description": "(§4) For growth studies, ZR-75-1 cells were cultured in MEZR medium or in phenol red-free RPMI 1640 supplemented with 2 mM L-glutamine, 1 mM sodium pyruvate, 15 mM Hepes, antibiotics, 1 nM 17β-estradiol, 0.5 μg of bovine insulin per ml and 5% (v/v) charcoal-treated fetal bovine serum (SD medium), as indicated in the text. When polyamines or polyamine analogs were added to serum-containing media, 1 mM aminoguanidine was added to inhibit bovine serum amine oxidase (BSAO) activity (Morgan, D. M. L. 1989, in The Physiology of Polyamines (Bachrach, U., and Heimer, Y. M. eds) Vol. I, pp. 203-229, CRC Press, Boca Raton). The effect of the transport inhibitors on cell growth was measured by incubating ZR-75-1 cells for 11 days in medium supplemented with antagonist, polyamines and/or 1 mM DFMO as indicated, followed by colorimetric determination of DNA content with 3,4-diaminobenzoic acid (Simard, J., Dauvois, S., Haagensen, D. E., Lėvesque C., Mėrand, Y. and Labriė, F. 1990. Endocrinology 126: 3223-3231). Medium was changed every other day in these experiments because of the slow reaction of the compound with an unknown component present in the IMEM and RPMI 1640 medium formulation.\nThe biocompatibility of DESC, MESC, and DEASC was thus evaluated during a long-term (11-day) incubation with ZR-75-1 cells grown in RPMI 1640 containing 10% (v/v) FBS in the absence and presence of 1 mM aminoguanidine. […] Weak growth inhibition caused by the mixed MESC-cysteamine disulfide, however, apparently involved degradation by a copper amine oxidase."}, "polyamine transporter [5]": {"test_system": "polyamine transporter", "experiment": "Inhibition of [3H]spermidine uptake in ZR-75-1 cells", "assay_type": "cell-based, human", "settings": "FIG. 32, 20 μM and 3 μM substrate, respectively, read-out: Apparent Ki, spermidine uptake", "description": "as §1\nas §2, with “Alternatively, the value of Ki for a mixed competitor/non-competitor was estimated from the intersect of equations v^−1 vs i at two different substrate concentrations (Dixon, M. and Webb, E. C. 1976. Enzymes, 3rd Ed., Academic Press, San Diego, Calif.). Intracellular Accumulation” left out\nas §3"}, "polyamine transporter [6]": {"biological_target": "polyamine transporter", "settings": "ZR-75-1 cells; data annotated a (Lessard et al. 1995); read-out: Km or Ki, putrescine transport; cited from earlier work"}, "[7]": {"settings": "MESC: amino group neighboring the amide linkage; cited from earlier work"}, "polyamine transporter [8]": {"biological_target": "polyamine transporter", "settings": "ZR-75-1 cells; data annotated a (Lessard et al. 1995); read-out: Km or Ki, spermidine transport; cited from earlier work"}, "polyamine transporter [9]": {"biological_target": "polyamine transporter", "settings": "ZR-75-1 cells; data annotated a (Lessard et al. 1995); read-out: Km or Ki, spermine transport; cited from earlier work"}, "ZR-75-1 cells [10]": {"test_system": "ZR-75-1 cells", "experiment": "Reversal of DFMO-induced growth inhibition by exogenous spermidine", "assay_type": "cell-based, human", "settings": "1 mM DFMO", "description": "as §4, with “3223-3231).” for “3223-3231). Medium was changed every other day in these experiments because of the slow reaction of the compound with an unknown component present in the IMEM and RPMI 1640 medium formulation.”\nThis possibility was assessed by comparing the ability of DESC to prevent the reversal of DFMO-induced growth inhibition by increasing concentrations of exogenous spermidine."}, "ZR-75-1 cells [11]": {"test_system": "ZR-75-1 cells", "experiment": "Intracellular accumulation of inhibitor and polyamine contents (HPLC) in ZR-75-1 cells", "assay_type": "cell-based, human", "settings": "ZR-75-1 cells, 6-hour incubation, HPLC of cell extracts"}, "polyamine transporter [12]": {"test_system": "polyamine transporter", "experiment": "Inhibition of [14C]spermine uptake in ZR-75-1 cells", "assay_type": "cell-based, human", "settings": "3μM substrate (Example 11), read-out: Ki, [14C]spermine transport"}, "in vitro": {"experiment": "in vitro", "settings": "human, ZR-75-1 cells", "text": "FIG. 34 represents the relative cytotoxicity of sym-norspermidine (NSpd), BABAC and TADAX in ZR-75-1 human breast cancer cells. Data are the mean±SD of triplicate determinations from a representative experiment."}},
  "note": "Like-named read-outs stand apart in the source and are kept apart here.",
  "data": [
    {"smiles": "NCCCNCCCC(NCCCN)C(=O)NCCSSCCN", "note": "(stereo not shown) [DEASC, N-[2,2′-dithio(ethyl,1-aminoethyl)]spermine-5-carboxamide]", "values": [
      {"measurement": "Mode of inhibition of [3H]putrescine uptake", "setting": "polyamine transporter [1]; Lineweaver-Burke, DESC up to 100 μM, MESC up to 200 μM", "result": "mixed competitive/non-competitive type"},
      {"measurement": "Ki", "setting": "polyamine transporter [1]; mixed competitive/non-competitive model, read-out: Ki′ (carrier/inhibitor/putrescine complex formation)", "result": 4100, "unit": "nM"},
      {"measurement": "Ki", "setting": "polyamine transporter [1]; this work, DEASC: Ki of mixed competitive/non-competitive model, read-out: Ki, putrescine transport", "result": "5300 ± 600", "unit": "nM"},
      {"measurement": "Ki for [14C]spermine transport, fold higher than that of DESC", "setting": "polyamine transporter [2]; FIG. 2", "result": "about 5 fold"},
      {"measurement": "Ki", "setting": "polyamine transporter [2]", "result": "16000 ± 3000", "unit": "nM"},
      {"measurement": "Stability in aqueous solutions", "setting": "[3]", "result": "stable for months"},
      {"measurement": "Inhibition of cell proliferation", "setting": "ZR-75-1 cells [4]; completely prevented by aminoguanidine", "result": 20, "unit": "%"}
    ]},
    {"smiles": "NCCCNCCCCNCCCN", "note": "[Spermine, N,N′-bis-[3-aminopropyl]-1,4-butanediamine, reference compound]", "values": [
      {"measurement": "Ki", "setting": "polyamine transporter [1]; FIG. 32, 20 μM and 3 μM substrate, respectively, read-out: Apparent Ki, putrescine uptake", "result": 74.5, "unit": "nM"},
      {"measurement": "Ki", "setting": "polyamine transporter [5]", "result": 400, "unit": "nM"},
      {"measurement": "Km", "setting": "polyamine transporter [2]; 3μM substrate (Example 11), read-out: Apparent Km, spermine transport", "result": 0.6, "unit": "µM"},
      {"measurement": "Ki", "setting": "polyamine transporter [2]", "result": "200 ± 60", "unit": "nM"},
      {"measurement": "Ki", "setting": "polyamine transporter [6]", "result": "330 ± 20", "unit": "nM"},
      {"measurement": "pKa of secondary amino group of the spermine head", "setting": "[7]", "result": "8.9-9.8"},
      {"measurement": "Effect on cell growth", "setting": "ZR-75-1 cells [4]; with or without 1 mM aminoguanidine", "result": "acutely cytotoxic"}
    ]},
    {"smiles": "NCCCCNCCCN", "note": "[Spermidine, N-3[aminopropyl]-1,4-diaminobutane]", "values": [
      {"measurement": "Ki", "setting": "polyamine transporter [8]", "result": "490 ± 150", "unit": "nM"},
      {"measurement": "Ki", "setting": "polyamine transporter [9]", "result": "370 ± 90", "unit": "nM"},
      {"measurement": "Ki", "setting": "polyamine transporter [6]", "result": "230 ± 50", "unit": "nM"},
      {"measurement": "Spermidine concentration completely reversing DFMO-induced growth inhibition", "setting": "ZR-75-1 cells [10]; 11 days", "result": 0.3, "unit": "µM"},
      {"measurement": "activity at 0.1 µM", "setting": "ZR-75-1 cells [10]; Homo sapiens, ZR-75-1, 0.1 μM spermidine, read-out: Growth of DFMO-treated cells restored, % of control value", "result": 78, "unit": "%"}
    ]},
    {"smiles": "NCCCCN", "note": "[Putrescine, 1,4-butane-diamine]", "values": [
      {"measurement": "Ki", "setting": "polyamine transporter [8]", "result": "125000 ± 29000", "unit": "nM"},
      {"measurement": "Ki", "setting": "polyamine transporter [2]", "result": "230 ± 130", "unit": "nM"},
      {"measurement": "Ki", "setting": "polyamine transporter [6]", "result": "3700 ± 400", "unit": "nM"}
    ]},
    {"smiles": "NCCCN(CCCN)Cc1ccc(CN(CCCN)CCCN)cc1", "note": "[TADAX, N,N,N′,N′-tetrakis(3-aminopropyl)-p-xylylenediamine]", "values": [
      {"measurement": "Accumulation of the compound in cells", "setting": "ZR-75-1 cells [11]", "result": "no detectable accumulation"},
      {"measurement": "Ki", "setting": "polyamine transporter [12]", "result": 1500, "unit": "nM"},
      {"measurement": "IC50", "setting": "in vitro", "result": "> 500000", "unit": "nM"}
    ]}
  ]
}
